This is an account of results in patent US20020173452A1, “Cytostatic-glycoconjugates having specifically cleavable linking units” (priority 2000, published 2002).

Assay in all cases: Growth inhibition test (MTT) for cytotoxic properties on tumour cell lines
What all share (assay type): cell-based

The subject of series [1] is B16F10 mouse melanoma cell line. The following applies: B16F10 cells, growth checked after day 6, read-out: IC50 of the cytotoxic action on tumour cell lines, B16F10. The method, then:
(§1) A: Growth Inhibition Test for the Determination of the Cytotoxic Properties on Various Tumour Cell Lines
(§2) The human large intestine cell lines SW 480 and HT29 (ATCC No. CCL 228 and HTB38 and the mouse melanoma cell line B16F10 (CRL 6475) were grown to confluence in Roux dishes in RPMI 1640 medium with addition of 10% FCS. They were then trypsinized and taken up in RPMI plus 10% FCS to a cell count of 50,000 cells or, for B16F10, 20,000 cells per ml. 100 μl of cell suspension/well were added to a 96 microwell plate and incubated at 37° C. for 1 day in a CO2 incubator. A further 100 μl of RPMI medium and 1 μl of DMSO were then added with the test substances. The growth was checked after day 6. For this, 25 μl of MTT solution (3-(4,5-dimethylthiazol-2-yl)-2,5-diphenyltetrazolium bromide) was added to each well at a starting concentration of 5 mg/ml of H2O. The plate was incubated at 37° C. for 5 hours in a CO2 incubator. The medium was then aspirated and 100 μl of 1-propanol/well were added. After shaking with 100 μl of H2O for 30 min, the extinction was measured at 595 nm using a Multiplate Reader (BIO-RAD 3550-UV).
(§3) The cytostatic action is indicated in Table 1 as an IC50 value, in each case for the individual cell lines.

Series [2] relates to HT29 human large intestine cell line. The following applies: HT29 cells, growth checked after day 6, read-out: IC50 of the cytotoxic action on tumour cell lines, HT29. The protocol:
as §1, §2, §3

Series [3] relates to SW 480 human large intestine cell line. The following applies: SW480 cells, growth checked after day 6, read-out: IC50 of the cytotoxic action on tumour cell lines, SW480. The protocol:
as §1, §2, §3

Where a SMILES comes first, the peptide text is derived from it. [ ]: non-standard residue; d: D form. The star is where a group is joined. ξ: configuration not given here. Camptothecin(20R,20-O) = CC[C@]1(O*)C(=O)OCc2c1cc1n(c2=O)Cc2cc3ccccc3nc2-1; X5 = C[C@H]1O[C@@H](Oc2ccc(NC(=S)*)cc2)[C@@H](O)[C@@H](OCC(N)=O)[C@H]1O; X9 = C[C@H]1O[C@@H](Oc2ccc(NC(=S)*)cc2)[C@@H](O)[C@@H](OCCO)[C@H]1O; X8 = C[C@H]1OC(Oc2ccc(NC(=S)*)cc2)[C@@H](O)[C@@H](OCC(=O)O)[C@H]1O; X4 = CO[C@H]1[C@H](O)[C@@H](Oc2ccc(NC(=S)*)cc2)O[C@@H](C)[C@H]1O; X6 = CO[C@@H]1[C@H](O)[C@H](Oc2ccc(NC(=S)*)cc2)O[C@H](C)[C@@H]1O; X1 = CO[C@H]1[C@@H](O)[C@@H](C)OC(Oc2ccc(NC(=S)*)cc2)[C@H]1O; X7 = OC[C@H]1OC(Oc2ccc(NC(=S)*)cc2)[C@@H](O)[C@@H](O)[C@H]1O; X2 = CC[C@@]1(O*)C(=O)OCc2c1cc1n(c2=O)Cc2cc3ccccc3nc2-1; Ile(3ξ) = CCC(C)[C@H](N)C(=O)O; ξV = CC(C)C(N)C(=O)O; ξP = O=C(O)C1CCCN1

For the compound `CC[C@@]1(OC(=O)[C@H](NC(=O)[C@@H](Cc2c[nH]cn2)NC(=O)CNC(=O)[C@H](CC(C)C)NC(=O)[C@H]2CCCN2C(=S)Nc2ccc(OC3O[C@H](C)[C@H](O)[C@H](OC)[C@@H]3O)cc2)C(C)C)C(=O)OCc2c1cc1n(c2=O)Cc2cc3ccccc3nc2-1` (stereo partly drawn) [Example 1], the IC50 (in general, the point on the concentration scale where inhibition reaches its midpoint) is 150 nM in series [1], 70 nM in series [2] and 150 nM in series [3].

Consider `CC[C@@]1(OC(=O)[C@H](NC(=O)[C@@H](CSC)NC(=O)[C@@H](CC(C)C)NC(=O)CNC(=O)[C@H](CC(C)C)NC(=O)[C@H]2CCCN2C(=S)Nc2ccc(OC3O[C@H](C)[C@H](O)[C@H](OC)[C@@H]3O)cc2)C(C)C)C(=O)OCc2c1cc1n(c2=O)Cc2cc3ccccc3nc2-1` (stereo partly drawn) [Example 8] (X1-[dP]LG[dL][dC](Me)[dV]-X2), for which the values for the IC50 in series [1], in series [2] and in series [3] were 150 nM, 40 nM and 50 nM, respectively.

As to `CC[C@]1(OC(=O)[C@H](NC(=O)[C@@H](CCCCN)NC(=O)[C@@H](CC(C)C)NC(=O)CNC(=O)[C@H](CC(C)C)NC(=O)[C@H]2CCCN2C(=S)Nc2ccc(O[C@@H]3O[C@H](C)[C@H](O)[C@H](OC)[C@@H]3O)cc2)C(C)C)C(=O)OCc2c1cc1n(c2=O)Cc2cc3ccccc3nc2-1` [Example 10] (X6-[dP]LG[dL][dK][dV]-{Camptothecin(20R,20-O)}), the values for the IC50 in series [1], in series [2] and in series [3] were 150 nM, 70 nM and 80 nM, respectively.

`CC[C@@]1(OC(=O)[C@H](NC(=O)[C@@H](Cc2c[nH]cn2)NC(=O)[C@@H](CC(C)C)NC(=O)CNC(=O)[C@H](CC(C)C)NC(=O)[C@H]2CCCN2C(=S)Nc2ccc(OC3O[C@H](C)[C@H](O)[C@H](OC)[C@@H]3O)cc2)C(C)C)C(=O)OCc2c1cc1n(c2=O)Cc2cc3ccccc3nc2-1` (stereo partly drawn) [Example 11] (X1-[dP]LG[dL][dH][dV]-X2): the IC50 in series [1] amounted to 300 nM; in series [2], 80 nM; in series [3] it was 200 nM.

On to `CC[C@@]1(OC(=O)[C@H](NC(=O)[C@@H](Cc2c[nH]cn2)NC(=O)[C@@H](CC(C)C)NC(=O)CNC(=O)[C@H](CC(C)C)NC(=O)[C@H]2CCCN2C(=S)Nc2ccc(OC3O[C@H](C)[C@H](O)[C@H](OC)[C@@H]3O)cc2)C(C)C)C(=O)OCc2c1cc1n(c2=O)Cc2cc3ccccc3nc2-1` (stereo partly drawn) [Example 13] (X1-[dP]LG[dL][dH][dV]-X2), for which the figures for the IC50 in series [1], in series [2] and in series [3] were 200 nM, 70 nM and 100 nM, respectively.

Turning to `CC[C@@]1(OC(=O)[C@@H](NC(=O)[C@@H](C)NC(=O)[C@H](CC(C)C)NC(=O)CNC(=O)[C@H](CC(C)C)NC(=O)[C@@H]2CCCN2C(=S)Nc2ccc(O[C@H]3O[C@@H](C)[C@@H](O)[C@@H](OC)[C@@H]3O)cc2)C(C)C)C(=O)OCc2c1cc1n(c2=O)Cc2cc3ccccc3nc2-1` [Example 14] (X4-PLGL[dA]V-X2), the IC50 in series [1] was 2000 nM; in series [2], 900 nM; in series [3], 700 nM.

In the case of `CC[C@@]1(OC(=O)[C@@H](NC(=O)[C@@H](NC(=O)[C@H](CC(C)C)NC(=O)CNC(=O)[C@H](CC(C)C)NC(=O)[C@@H]2CCCN2C(=S)Nc2ccc(O[C@H]3O[C@@H](C)[C@@H](O)[C@@H](OC)[C@@H]3O)cc2)C(C)C)C(C)C)C(=O)OCc2c1cc1n(c2=O)Cc2cc3ccccc3nc2-1` [Example 15] (X4-PLGLVV-X2), the results for the IC50 in series [1], in series [2] and in series [3] were 400 nM, 100 nM and 80 nM, respectively.

Consider `CC[C@@]1(OC(=O)[C@@H](NC(=O)[C@H](Cc2ccccc2)NC(=O)[C@H](CC(C)C)NC(=O)CNC(=O)[C@H](CC(C)C)NC(=O)[C@@H]2CCCN2C(=S)Nc2ccc(O[C@H]3O[C@@H](C)[C@@H](O)[C@@H](OC)[C@@H]3O)cc2)C(C)C)C(=O)OCc2c1cc1n(c2=O)Cc2cc3ccccc3nc2-1` [Example 16] (X4-PLGLFV-X2), for which the IC50 in series [1] stood at 250 nM; in series [2], 80 nM; in series [3], 60 nM.

On to `CC[C@@]1(OC(=O)[C@@H](NC(=O)[C@H](CO)NC(=O)[C@H](CC(C)C)NC(=O)CNC(=O)[C@H](CC(C)C)NC(=O)[C@@H]2CCCN2C(=S)Nc2ccc(O[C@H]3O[C@@H](C)[C@@H](O)[C@@H](OC)[C@@H]3O)cc2)C(C)C)C(=O)OCc2c1cc1n(c2=O)Cc2cc3ccccc3nc2-1` [Example 17] (X4-PLGLSV-X2), for which the IC50 in series [1] was 200 nM; in series [2], 70 nM; in series [3] it was 40 nM.

As to `CCC(C)[C@H](NC(=O)[C@H](CC(C)C)NC(=O)CNC(=O)[C@H](CC(C)C)NC(=O)[C@@H]1CCCN1C(=S)Nc1ccc(O[C@H]2O[C@@H](C)[C@@H](O)[C@@H](OC)[C@@H]2O)cc1)C(=O)N[C@H](C(=O)O[C@]1(CC)C(=O)OCc2c1cc1n(c2=O)Cc2cc3ccccc3nc2-1)C(C)C` (stereo partly drawn) [Example 18] (X4-PLGL[Ile(3ξ)]V-X2), the values for the IC50 in series [1], in series [2] and in series [3] were 600 nM, 200 nM and 100 nM, respectively.

For `CC[C@@]1(OC(=O)[C@@H](NC(=O)[C@H](CCC(=O)O)NC(=O)[C@H](CC(C)C)NC(=O)CNC(=O)[C@H](CC(C)C)NC(=O)[C@@H]2CCCN2C(=S)Nc2ccc(O[C@H]3O[C@@H](C)[C@@H](O)[C@@H](OC)[C@@H]3O)cc2)C(C)C)C(=O)OCc2c1cc1n(c2=O)Cc2cc3ccccc3nc2-1` [Example 19] (X4-PLGLEV-X2), the IC50 stood at 1500 nM in series [1], 400 nM in series [2] and 200 nM in series [3].

Take `CC[C@@]1(OC(=O)[C@@H](NC(=O)CNC(=O)[C@H](CC(C)C)NC(=O)CNC(=O)[C@H](CC(C)C)NC(=O)[C@@H]2CCCN2C(=S)Nc2ccc(O[C@H]3O[C@@H](C)[C@@H](O)[C@@H](OC)[C@@H]3O)cc2)C(C)C)C(=O)OCc2c1cc1n(c2=O)Cc2cc3ccccc3nc2-1` [Example 20] (X4-PLGLGV-X2): the IC50 in series [1] worked out at 800 nM; in series [2], 250 nM; in series [3], 120 nM.

For `CC[C@@]1(OC(=O)[C@@H](NC(=O)[C@@H]2CCCN2C(=O)[C@H](CC(C)C)NC(=O)CNC(=O)[C@H](CC(C)C)NC(=O)[C@@H]2CCCN2C(=S)Nc2ccc(O[C@H]3O[C@@H](C)[C@@H](O)[C@@H](OC)[C@@H]3O)cc2)C(C)C)C(=O)OCc2c1cc1n(c2=O)Cc2cc3ccccc3nc2-1` [Example 21] (X4-PLGLPV-X2), the IC50 in series [1] is 800 nM; in series [2], 250 nM; in series [3], 100 nM.

Regarding `CC[C@@]1(OC(=O)[C@@H](NC(=O)[C@H](C)NC(=O)[C@H](CC(C)C)NC(=O)CNC(=O)[C@H](CC(C)C)NC(=O)[C@@H]2CCCN2C(=S)Nc2ccc(O[C@H]3O[C@@H](C)[C@@H](O)[C@@H](OC)[C@@H]3O)cc2)C(C)C)C(=O)OCc2c1cc1n(c2=O)Cc2cc3ccccc3nc2-1` [Example 22] (X4-PLGLAV-X2), the IC50 in series [1] came out at 250 nM; in series [2], 70 nM; in series [3], 40 nM.

Consider `CC[C@@]1(OC(=O)[C@H](NC(=O)[C@@H](CC(N)=O)NC(=O)[C@@H](CC(C)C)NC(=O)CNC(=O)[C@H](CC(C)C)NC(=O)[C@H]2CCCN2C(=S)Nc2ccc(OC3O[C@H](C)[C@H](O)[C@H](OCC(=O)O)[C@@H]3O)cc2)C(C)C)C(=O)OCc2c1cc1n(c2=O)Cc2cc3ccccc3nc2-1` (stereo partly drawn) [Example 23] (X8-[dP]LG[dL][dN][dV]-X2), for which the IC50 in series [1] was 800 nM; in series [2], 120 nM; in series [3] it was 200 nM.

`CC[C@@]1(OC(=O)[C@H](NC(=O)[C@@H](CC(N)=O)NC(=O)[C@@H](CC(C)C)NC(=O)CNC(=O)[C@H](CC(C)C)NC(=O)[C@H]2CCCN2C(=S)Nc2ccc(OC3O[C@H](CO)[C@H](O)[C@H](O)[C@@H]3O)cc2)C(C)C)C(=O)OCc2c1cc1n(c2=O)Cc2cc3ccccc3nc2-1` (stereo partly drawn) [Example 24] (X7-[dP]LG[dL][dN][dV]-X2): the figures for the IC50 in series [1], in series [2] and in series [3] were 500 nM, 100 nM and 200 nM, respectively.

On to `CC[C@]1(OC(=O)[C@H](NC(=O)[C@@H](CC(N)=O)NC(=O)[C@@H](CC(C)C)NC(=O)CNC(=O)[C@H](CC(C)C)NC(=O)[C@H]2CCCN2C(=S)Nc2ccc(O[C@@H]3O[C@H](C)[C@H](O)[C@H](OCCO)[C@@H]3O)cc2)C(C)C)C(=O)OCc2c1cc1n(c2=O)Cc2cc3ccccc3nc2-1` [Example 25] (X9-[dP]LG[dL][dN][dV]-{Camptothecin(20R,20-O)}), for which the IC50 in series [1] stood at 800 nM; in series [2], 150 nM; in series [3] it was 180 nM.

On to `CC[C@]1(OC(=O)C(NC(=O)[C@@H](CC(N)=O)NC(=O)[C@@H](CC(C)C)NC(=O)CNC(=O)[C@H](CC(C)C)NC(=O)C2CCCN2C(=S)Nc2ccc(O[C@@H]3O[C@H](C)[C@H](O)[C@H](OCC(N)=O)[C@@H]3O)cc2)C(C)C)C(=O)OCc2c1cc1n(c2=O)Cc2cc3ccccc3nc2-1` (stereo partly drawn) [Example 26] (X5-[ξP]LG[dL][dN][ξV]-{Camptothecin(20R,20-O)}), for which the IC50 is 450 nM in series [1], 90 nM in series [2] and 150 nM in series [3].
